Assay results reported in paper PMC6835155, “Lessons from LIMK1 enzymology and their impact on inhibitor design” (Biochemical Journal, 2019).
Counter-ions that a name gives are not always drawn. Like-named read-outs stand apart in the source and are kept apart here.

Assays:
[1] = molecular target: T1, LIMK2KD (Homo sapiens, UniProt P53671); experiment: Differential (dynamic) scanning fluorimetry (DSF) assay, LIMK2KD; type: binding; conditions: for ΔTm at 10 µM: read-out: TM Shift LIMK2 (K)
T1 construct: The cDNA coding for LIMK2 residues 330 to 632 was PCR amplified; His6 (N, cleaved yes); made in house; host or cells: baculovirus; Sf9 for virus, TriEx insect cells for expression
T1 sequence (P53671 330-632): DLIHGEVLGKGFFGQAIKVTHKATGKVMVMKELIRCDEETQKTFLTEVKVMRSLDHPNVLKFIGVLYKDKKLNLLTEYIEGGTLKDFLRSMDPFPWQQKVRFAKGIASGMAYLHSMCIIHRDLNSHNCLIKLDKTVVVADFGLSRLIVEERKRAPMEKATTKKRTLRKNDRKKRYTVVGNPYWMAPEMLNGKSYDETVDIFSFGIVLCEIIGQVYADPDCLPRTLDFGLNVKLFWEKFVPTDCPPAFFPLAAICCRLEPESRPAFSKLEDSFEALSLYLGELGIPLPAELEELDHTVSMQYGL

[2] = molecular target: T2, LIMK1KD (Homo sapiens, UniProt P53667); experiment: Differential (dynamic) scanning fluorimetry (DSF) assay, LIMK1KD; type: binding; conditions: for ΔTm at 10 µM: read-out: TM Shift LIMK1 (K)
T2 construct: His6 (N, cleaved yes); made in house; host or cells: baculovirus; Sf9 for virus, TriEx insect cells for expression
T2 sequence (P53667 330-637): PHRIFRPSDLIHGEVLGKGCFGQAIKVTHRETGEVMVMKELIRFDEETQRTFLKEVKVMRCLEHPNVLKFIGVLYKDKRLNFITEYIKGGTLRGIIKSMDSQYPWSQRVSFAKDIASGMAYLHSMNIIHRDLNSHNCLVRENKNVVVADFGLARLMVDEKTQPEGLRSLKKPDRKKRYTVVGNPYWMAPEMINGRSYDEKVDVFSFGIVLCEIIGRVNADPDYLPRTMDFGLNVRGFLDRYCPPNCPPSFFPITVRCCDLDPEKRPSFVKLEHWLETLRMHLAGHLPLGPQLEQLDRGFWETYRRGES

[3] = LIMK2KD, compound 10 µM, single shot
[4] = 2 µM LIMK1KD, compound 10 µM, single shot
[5] = LIMK2KD, compound 10 µM, single shot, 10 µM

## CN(C)Cc1cccc(N/C(=C2\C(=O)Nc3cc(C(=O)N(C)C)ccc32)c2ccccc2)c1 [BIX 02189]
[1]; [3]
  TM Shift LIMK2 (K): 4.5 K
[2]; [4]
  TM Shift LIMK1 (K): 0.1 K

## O=c1c(-c2ccc(O)cc2)coc2cc(O)cc(O)c12 [Genistein]
[1]; [3]
  ΔTm at 10 µM: 4 °C
[2]; [4]
  ΔTm at 10 µM: -0.3 °C

## C[C@@H](Oc1cc(-c2cnn(C3CCNCC3)c2)cnc1N)c1c(Cl)ccc(F)c1Cl [Crizotinib (PF-02341066), Crizotinib]
[1]; [3]
  ΔTm at 10 µM: 1.4 °C
[2]; [4]
  ΔTm at 10 µM: 3.9 °C

## COc1cc(Nc2ncc(F)c(Nc3ccc4c(n3)NC(=O)C(C)(C)O4)n2)cc(OC)c1OC [Tamatinib]
[1]; [3]
  ΔTm at 10 µM: 3 °C
[2]; [4]
  ΔTm at 10 µM: 5.5 °C

## COc1cc(N2CCC(N3CCN(C)CC3)CC2)ccc1Nc1ncc(Cl)c(Nc2ccccc2P(C)(C)=O)n1 [AP26113]
[1]; [3]
  ΔTm at 10 µM: 0.1 °C
[2]; [4]
  ΔTm at 10 µM: 3.4 °C

## Cc1cc(Nc2cc(CN3CCOCC3)c3nc(C)c(Cc4ccc(Cl)cc4F)n3n2)n[nH]1 [LY2784544]
[1]; [5]
  TM Shift LIMK2 (K): 1.1 K
[2]; [4]
  ΔTm at 10 µM: 5 °C

## CC(=O)Nc1nc(C)c(-c2ccc(Cl)c(S(=O)(=O)NCCO)c2)s1 [PIK-93]
[1]; 10 µM
  TM Shift LIMK2 (K): 1.7 K
[2]
  TM Shift LIMK1 (K): 1.0 K

## COc1c(C)c(C(=O)c2ccc(N)c(C(=O)[O-])c2)n2ccccc12.[Na+] [SSR128129E]
[1]; [3]
  TM Shift LIMK2 (K): 2.4 K
[2]; [4]
  TM Shift LIMK1 (K): -0.6 K

## C#Cc1cccc(Nc2ncnc3cc(OC)c(OCCCCCCC(=O)NO)cc23)c1 [CUDC-101]
[1]; [3]
  ΔTm at 10 µM: 1.6 °C
[2]; [4]
  ΔTm at 10 µM: 0.8 °C

## COc1cccc2cc(-c3nc([C@H]4CC[C@H](C(=O)O)CC4)n4ncnc(N)c34)[nH]c12 [OSI-027]
[1]; [3]
  ΔTm at 10 µM: 0.2 °C
[2]; [4]
  ΔTm at 10 µM: 2.2 °C

## O=C(Nc1ccc2[nH]nc(-c3ccncc3)c2c1)[C@@H]1CCN(CC(=O)N2CCN(c3ccc(-c4ncccn4)cc3)CC2)C1 [SCH772984]
[1]; [3]
  ΔTm at 10 µM: 0.1 °C
[2]; [4]
  ΔTm at 10 µM: 0.3 °C

## COc1cc2ncnc(Nc3ccc(Cl)cc3F)c2cc1OC [ZM 306416]
[1]; [3]
  TM Shift LIMK2 (K): 1.8 K
[2]; [4]
  TM Shift LIMK1 (K): 0.4 K

## CCCCOc1c(C(=O)c2c(F)cc(C)cc2F)c[nH]c2nncc1-2 [BMS-265246]
[1]; [3]
  ΔTm at 10 µM: 1.4 °C
[2]; [4]
  ΔTm at 10 µM: 0.7 °C

## COc1ccc(S(=O)(=O)N(C(C)=O)c2ccccc2/C=C/c2cc[n+]([O-])cc2)cc1 [HMN-214]
[1]; [3]
  ΔTm at 10 µM: 1 °C
[2]; [4]
  ΔTm at 10 µM: 2.5 °C

## WYE-354
[1]; [3]
  TM Shift LIMK2 (K): 4.1 K
[2]; [4]
  TM Shift LIMK1 (K): 0.2 K

## CS(=O)(=O)c1ccc(-c2cnc(N)c(C(=O)Nc3ccccc3)n2)cc1 [VE-821]
[1]; [3]
  ΔTm at 10 µM: 1.5 °C
[2]; [4]
  ΔTm at 10 µM: 0.8 °C

## COc1cc2nccc(Oc3ccc(NC(=O)Nc4cc(C)on4)c(Cl)c3)c2cc1OC [Tivozanib (AV-951), Tivozanib]
[1]; [3]
  ΔTm at 10 µM: 1.5 °C
[2]; [4]
  ΔTm at 10 µM: 1.1 °C

## CCOc1cc2ncc(C#N)c(Nc3ccc(OCc4ccccn4)c(Cl)c3)c2cc1NC(=O)/C=C/CN(C)C [Neratinib (HKI-272), Neratinib]
[1]
  ΔTm at 10 µM: 1 °C
[2]; [4]
  ΔTm at 10 µM: 0.2 °C

## NC(=O)c1cnc(N[C@@H]2CCCC[C@@H]2N)nc1Nc1cccc(-n2nccn2)c1 [PRT062607 (P505-15, BIIB057) HCl]
[1]; [3]
  ΔTm at 10 µM: -1 °C
[2]; [4]
  ΔTm at 10 µM: -0.6 °C

## Cc1c(NC(=O)OC[C@@H]2COCCN2)cn2ncnc(Nc3ccc4c(cnn4Cc4cccc(F)c4)c3)c12 [BMS-599626]
[1]; [5]
  TM Shift LIMK2 (K): -0.4 K
[1]; LIMK2KD, compound 10 µM, single shot, listed as AC480 (BMS-599626), 10 µM
  TM Shift LIMK2 (K): 0.9 K
[2]; [4]
  ΔTm at 10 µM: 0.7 °C

## CN1CCN(c2nc(C3=C(c4c[nH]c5ccccc45)C(=O)NC3=O)c3ccccc3n2)CC1 [Sotrastaurin]
[1]; [3]
  ΔTm at 10 µM: 1.2 °C
[2]; [4]
  ΔTm at 10 µM: 0.6 °C

## CN1CCN(CCOc2cc(OC3CCOCC3)c3c(Nc4c(Cl)ccc5c4OCO5)ncnc3c2)CC1 [Saracatinib (AZD0530), Saracatinib]
[1]; [3]
  ΔTm at 10 µM: 0.8 °C
[2]; [4]
  ΔTm at 10 µM: 1.2 °C

## O=C(c1ccc(Nc2nccc(-c3cc4ccccc4s3)n2)cc1)N1CCC(N2CCCC2)CC1 [IKK-16 (IKK Inhibitor VII)]
[1]; [3]
  TM Shift LIMK2 (K): 2.1 K
[2]; [4]
  TM Shift LIMK1 (K): 7.0 K

## Cn1cnc2c(F)c(Nc3ccc(Br)cc3F)c(C(=O)NOCCO)cc21 [MEK162 (ARRY-162, ARRY-438162)]
[1]; [3]
  ΔTm at 10 µM: 2.1 °C
[2]; [4]
  ΔTm at 10 µM: 0.4 °C

## CN(c1ncccc1CNc1nc(Nc2ccc3c(c2)CC(=O)N3)ncc1C(F)(F)F)S(C)(=O)=O [PF-00562271]
[1]; [5]
  TM Shift LIMK2 (K): 0.3 K
[2]; [4]
  TM Shift LIMK1 (K): 1.1 K

## Cc1ccc(Nc2nccc(N(C)c3ccc4c(C)n(C)nc4c3)n2)cc1S(N)(=O)=O [Pazopanib]
[1]; [3]
  ΔTm at 10 µM: 6.2 °C

## O=c1c(O)c(-c2ccc(O)c(O)c2)oc2cc(O)cc(O)c12 [Quercetin]
[1]; [3]
  ΔTm at 10 µM: 3.9 °C

## CNC(=O)c1cc(Oc2ccc(NC(=O)Nc3ccc(Cl)c(C(F)(F)F)c3)cc2)ccn1 [Sorafenib]
[2]; [4]
  TM Shift LIMK1 (K): -0.7 K
